From patent US11008346B2, “Beta-lactamase inhibitors” (priority 2014, dated 2021)
Read-outs that look alike come from different tables or passages of the source.

Tests used:
OXA-1 β-lactamase = target: T1, OXA-1 β-lactamase (Escherichia coli, UniProt P13661); assay: β-lactamase enzyme inhibition, OXA-1; assay type: biochemical; conditions: Nitrocefin 100 μM, 486 nm; 15 min at 37° C. preincubation; read-out: IC50 OXA-1 (Class D)
T1 construct: made in house; host or cells: E. coli BL21(DE3)
In short: (§1)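 Native untagged β-lactamases were expressed in E. coli BL21(DE3) and purified. Enzyme was preincubated with inhibitor for 15 min at 37° C., then substrate hydrolysis was followed: nitrocefin 100 μM for p99 AmpC and OXA-1 (486 nm, 10 min), imipenem for KPC-2 (300 nm), cefotaxime for SHV-5 (260 nm). IC50 was derived from initial rates relative to uninhibited controls.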

[1] = system: K. pneumoniae A-1797 expressing KPC-2 and VIM-4; assay: broth microdilution MIC, K. pneumoniae KPC-2 and VIM-4; assay type: cell-based; conditions: Fixed Mero (meropenem) 4 μg/mL
In short: (§2)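 Potentiation MICs were run by CLSI broth microdilution in cation-adjusted Mueller Hinton broth, with test compound serially diluted 2-fold from 32 to 0.25 μg/mL against a fixed 4 μg/mL beta-lactam overlay. Plates were incubated 16-20 hours at 37° C and the MIC was read visually.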

SHV-5 β-lactamase = target: T2, SHV-5 β-lactamase (Klebsiella pneumoniae, UniProt P0A3M1); assay: β-lactamase enzyme inhibition, SHV-5; assay type: biochemical
T2 construct: made in house; host or cells: E. coli BL21(DE3)
In short: as §1

p99 AmpC β-lactamase = target: T3, p99 AmpC β-lactamase (Enterobacter cloacae, UniProt P05364); assay: β-lactamase enzyme inhibition, p99 AmpC; assay type: biochemical
T3 construct: made in house; host or cells: E. coli BL21(DE3)
In short: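 Native untagged E. cloacae p99 AmpC was expressed in E. coli BL21(DE3) and purified by cation exchange and gel filtration. Enzyme was preincubated with inhibitor at 37°C for 15 min.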

KPC-2 β-lactamase = target: T4, KPC-2 β-lactamase (Klebsiella pneumoniae, UniProt Q9F663); assay: β-lactamase enzyme inhibition, KPC-2; assay type: biochemical
T4 construct: made in house; host or cells: E. coli BL21(DE3)
In short: as §1

[2] = system: K. pneumoniae 156319 expressing KPC-3; assay: broth microdilution MIC, K. pneumoniae KPC-3; assay type: cell-based; conditions: Fixed Mero (meropenem) 4 μg/mL
In short: as §2

[3] = system: E. cloacae 144200 expressing Class C P99 AmpC; assay: broth microdilution MIC, E. cloacae P99; assay type: cell-based; conditions: Fixed CAZ (ceftazidime) 4 μg/mL
In short: as §2

[4] = system: P. aeruginosa Ps296 expressing VIM-2; assay: broth microdilution MIC, P. aeruginosa VIM-2; assay type: cell-based; conditions: Fixed Mero (meropenem) 4 μg/mL
Source text: (§3) To determine the ability of test compounds to potentiate the inhibition of the growth of bacterial strains that produce beta-lactamase enzymes, classic cell based broth microdilution MIC assays were employed. Six bacteria strains producing beta-lactamase enzymes were used: E. coli expressing the Class A Extended Spectrum Beta-Lactamase (ESBL) CTX-M-15, E. cloacae expressing the Class C P99, K. pneumoniae expressing the Class A carbapenemase KPC-3, P. aeruginosa expressing the Class B carbapenemase VIM-2, K pneumoniae expressing the class A carbapenemase KPC-2 and the class B carbapenemase VIM-4, and S. aureus producing the Class A penicillinase PC-1. The assay was conducted in Cation Adjusted Mueller Hinton Broth (CAMHB, BD #212322, BD Diagnostic Systems, Sparks, Md.). Bacteria strains were grown for 3-5 hours in CAMBH broth. Test compounds were added to a microtiter plate in 2-fold serial dilutions in CAMHB in a final concentration range of 32 μg/mL to 0.25 μg/ml. An overlay of CAMHB containing a Beta-lactam was added to the compounds at a final static concentration of 4 μg/ml. […] In addition to the titration of test compounds the MICs of a panel of control beta-lactams is also tested to ensure the strains are behaving consistently from test to test. Once the test compound and antibiotics are added the plates can be inoculated according to CLSI broth microdilution method. After inoculation the plates are incubated for 16-20 hours at 37° C., then the Minimal Inhibitory Concentration (MIC) of the test compound is determined visually.
(§4) Using the methodology described above, examples of the current invention were evaluated for their ability to inhibit the growth of β-lactamase-producing bacteria in the presence of a β-lactam antibiotic.
(§5) Representative results are shown in Table 4 where A represents an MIC of the fixed β-lactam antibiotic in the presence of >32 µg/mL of a β-lactamase inhibitor of exemplary compounds, B represents the MIC in the presence of between 8 and 32 µg/mL of a β-lactamase inhibitor of exemplary compounds, and C represents the MIC in the presence of ≤4 µg/mL of a β-lactamase inhibitor of exemplary compounds. NT=Not Tested.

[5] = system: S. aureus MSSA-7 producing penicillinase PC-1; assay: broth microdilution MIC, S. aureus PC-1; assay type: cell-based; conditions: for MIC of exemplary compounds in presence of fixed β-lactams, S. aureus MSSA-7 PC-1: Fixed Pip (piperacillin) 4 μg/mL
Source text: as §3, §4, §5

[6] = system: E. coli ESBL4 expressing CTX-M-15; assay: broth microdilution MIC, E. coli CTX-M-15; assay type: cell-based; conditions: Fixed CAZ (ceftazidime) 4 μg/mL
In short: as §2

[7] = target: T5, VIM-2 metallo β-lactamase (Pseudomonas aeruginosa, UniProt Q9K2N0); assay: β-lactamase enzyme inhibition, VIM-2; assay type: biochemical; conditions: Nitrocefin 100 μM, 486 nm; 15 min at 37° C. preincubation; read-out: IC50 VIM-2 (Class B)
T5 construct: made in house; host or cells: E. coli BL21(DE3)
In short: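 VIM-2 purified by Q sepharose anion exchange (50 mM Hepes pH 7.5, 0-600 mM NaCl gradient, two runs, >90% purity). Enzyme preincubated with inhibitor 15 min at 37° C; nitrocefin 100 μM final, absorbance at 486 nm followed 10 min. IC50 from initial hydrolysis rates versus inhibitor-free controls.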

[8] = imipenem substrate, 300 nm, 15 min at 37° C. preincubation, read-out: IC50 KPC-2 (Class A)

T1 sequence (P13661 26-276): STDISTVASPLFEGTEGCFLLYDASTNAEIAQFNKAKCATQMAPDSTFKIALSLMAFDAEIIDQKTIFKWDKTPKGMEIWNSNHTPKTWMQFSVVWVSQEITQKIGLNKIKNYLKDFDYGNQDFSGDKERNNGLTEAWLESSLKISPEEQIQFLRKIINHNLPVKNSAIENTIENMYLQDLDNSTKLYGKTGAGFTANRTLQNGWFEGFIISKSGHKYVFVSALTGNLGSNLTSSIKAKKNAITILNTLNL
T2 sequence (P0A3M1 22-286): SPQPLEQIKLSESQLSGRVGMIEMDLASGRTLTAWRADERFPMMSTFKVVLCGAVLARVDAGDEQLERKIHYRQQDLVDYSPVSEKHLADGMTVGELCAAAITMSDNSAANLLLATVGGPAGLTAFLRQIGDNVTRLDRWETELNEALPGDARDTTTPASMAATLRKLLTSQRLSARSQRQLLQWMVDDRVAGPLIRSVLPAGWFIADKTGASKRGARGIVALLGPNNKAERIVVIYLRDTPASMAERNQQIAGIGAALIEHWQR
T4 sequence (Q9F663 25-293, looked up): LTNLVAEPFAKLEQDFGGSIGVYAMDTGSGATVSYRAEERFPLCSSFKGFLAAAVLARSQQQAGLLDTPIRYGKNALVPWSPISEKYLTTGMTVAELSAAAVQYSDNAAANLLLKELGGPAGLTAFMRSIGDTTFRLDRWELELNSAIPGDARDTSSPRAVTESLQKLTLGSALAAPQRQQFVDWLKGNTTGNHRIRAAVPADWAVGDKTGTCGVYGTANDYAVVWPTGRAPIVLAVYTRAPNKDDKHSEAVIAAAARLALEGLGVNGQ
T3 sequence (P05364 21-381): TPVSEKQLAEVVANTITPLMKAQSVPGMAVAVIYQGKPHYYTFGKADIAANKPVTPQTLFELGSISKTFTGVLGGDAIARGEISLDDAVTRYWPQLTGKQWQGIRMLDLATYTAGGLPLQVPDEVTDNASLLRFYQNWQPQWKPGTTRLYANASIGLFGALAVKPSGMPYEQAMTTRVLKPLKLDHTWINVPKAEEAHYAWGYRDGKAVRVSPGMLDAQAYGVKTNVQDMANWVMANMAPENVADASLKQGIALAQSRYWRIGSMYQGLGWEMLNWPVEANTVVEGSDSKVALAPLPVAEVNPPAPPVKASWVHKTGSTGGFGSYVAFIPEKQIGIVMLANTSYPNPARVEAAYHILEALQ

Compound	IC50 (OXA-1 β-lactamase)	MIC of exemplary compounds in presence of fixed β-lactams, K.P. A-1797 KPC-2 VIM-4 [1]	IC50 (SHV-5 β-lactamase)	IC50 (p99 AmpC β-lactamase)	IC50 (KPC-2 β-lactamase; [8])	MIC of exemplary compounds in presence of fixed β-lactams, K.P. 156319 KPC-3 [2]	MIC of exemplary compounds in presence of fixed β-lactams, E. cl. 144200 p99 AmpC [3]	MIC of exemplary compounds in presence of fixed β-lactams, P. aerug. Ps296 VIM-2 [4]	MIC of exemplary compounds in presence of fixed β-lactams, S. aureus MSSA-7 PC-1 [5]	MIC of exemplary compounds in presence of fixed β-lactams, E. coli ESBL4 CTX-M-15 [6]	IC50 [7]	MIC alone ([5]; partner antibiotic alone, S. aureus producing PC-1)	IC50 (KPC-2 β-lactamase)
CC(C)(Cl)CCC(=O)N[C@H]1Cc2cccc(C(=O)O)c2OB1O [Example 24, (R)-3-(4-chloro-4-methylpentanamido)-2-hydroxy-3,4-dihydro-2H-benzo[e][1,2]oxaborinine-8-carboxylicacid]	< 100 nM	B (B represents the MIC in the presence of between 8 and 32 g/mL of a β-lactamase inhibitor)	< 100 nM	< 100 nM	< 100 nM	C (C represents the MIC in the presence of ≤4 g/mL of a β-lactamase inhibitor)	C (C represents the MIC in the presence of ≤4 g/mL of a β-lactamase inhibitor)	B (B represents the MIC in the presence of between 8 and 32 g/mL of a β-lactamase inhibitor)	C (C represents the MIC in the presence of ≤4 g/mL of a β-lactamase inhibitor)	C (C represents the MIC in the presence of ≤4 g/mL of a β-lactamase inhibitor)	1000 to 10000 nM	–	–
CCN1CCN(C(=O)N[C@@H](C(=O)N[C@@H]2C(=O)N3[C@@H]2SC(C)(C)[C@@H]3C(=O)O)c2ccccc2)C(=O)C1=O [Piperacillin, piperacillin, reference compound]	–	–	–	–	–	–	–	–	–	–	–	64 µg/mL	–
COCCC(=O)N[C@H]1Cc2cccc(C(=O)O)c2OB1O [Example 26, (R)-2-Hydroxy-3-(3-methoxy-propionylamino)-3,4-dihydro-2H-benzo[e][1,2]oxaborinine-8-carboxylic acid]	< 100 nM	B (B represents the MIC in the presence of between 8 and 32 g/mL of a β-lactamase inhibitor)	100 to 1000 nM	< 100 nM	< 100 nM	C (C represents the MIC in the presence of ≤4 g/mL of a β-lactamase inhibitor)	C (C represents the MIC in the presence of ≤4 g/mL of a β-lactamase inhibitor)	B (B represents the MIC in the presence of between 8 and 32 g/mL of a β-lactamase inhibitor)	C (C represents the MIC in the presence of ≤4 g/mL of a β-lactamase inhibitor)	C (C represents the MIC in the presence of ≤4 g/mL of a β-lactamase inhibitor)	1000 to 10000 nM	–	–
NC(=O)CCC(=O)N[C@H]1Cc2cccc(C(=O)O)c2OB1O [Example 16, (R)-3-(3-Carbamoyl-propionylamino)-2-hydroxy-3,4-dihydro-2H-benzo[e][1,2]oxaborinine-8-carboxylic acid]	< 100 nM	B (B represents the MIC in the presence of between 8 and 32 g/mL of a β-lactamase inhibitor)	100 to 1000 nM	< 100 nM	–	C (C represents the MIC in the presence of ≤4 g/mL of a β-lactamase inhibitor)	C (C represents the MIC in the presence of ≤4 g/mL of a β-lactamase inhibitor)	C (C represents the MIC in the presence of ≤4 g/mL of a β-lactamase inhibitor)	C (C represents the MIC in the presence of ≤4 g/mL of a β-lactamase inhibitor)	C (C represents the MIC in the presence of ≤4 g/mL of a β-lactamase inhibitor)	100 to 1000 nM	–	< 100 nM
O=C(CCc1cocn1)N[C@H]1Cc2cccc(C(=O)O)c2OB1O [Example 45, (R)-2-Hydroxy-3-(3-oxazol-4-yl-propionylamino)-3,4-dihydro-2H-benzo[e][1,2]oxaborinine-8-carboxylic acid]	< 100 nM	B (B represents the MIC in the presence of between 8 and 32 g/mL of a β-lactamase inhibitor)	< 100 nM	< 100 nM	< 100 nM	C (C represents the MIC in the presence of ≤4 g/mL of a β-lactamase inhibitor)	C (C represents the MIC in the presence of ≤4 g/mL of a β-lactamase inhibitor)	C (C represents the MIC in the presence of ≤4 g/mL of a β-lactamase inhibitor)	C (C represents the MIC in the presence of ≤4 g/mL of a β-lactamase inhibitor)	C (C represents the MIC in the presence of ≤4 g/mL of a β-lactamase inhibitor)	1000 to 10000 nM	–	–
CCC(=O)N[C@H]1Cc2cccc(C(=O)O)c2OB1O [Example 62, (R)-2-Hydroxy-3-propionylamino-3,4-dihydro-2H-benzo[e][1,2]oxaborinine-8-carboxylic acid]	< 100 nM	B (B represents the MIC in the presence of between 8 and 32 g/mL of a β-lactamase inhibitor)	100 to 1000 nM	–	–	C (C represents the MIC in the presence of ≤4 g/mL of a β-lactamase inhibitor)	C (C represents the MIC in the presence of ≤4 g/mL of a β-lactamase inhibitor)	B (B represents the MIC in the presence of between 8 and 32 g/mL of a β-lactamase inhibitor)	C (C represents the MIC in the presence of ≤4 g/mL of a β-lactamase inhibitor)	C (C represents the MIC in the presence of ≤4 g/mL of a β-lactamase inhibitor)	1000 to 10000 nM	–	< 100 nM
